Test system: Wnt pathway (TCF-dependent transcription in HEK293 luciferase reporter cell line with ER-DSH construct)
Test: Cellular assay for Wnt pathway activity (luciferase reporter)
Format: cell-based
Conditions: Homo sapiens; Wnt pathway inhibition, HEK293 luciferase reporter cells (ER-DSH, TCF promoter), 24 hours incubation, estrogen-induced
In short: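 Luminescent luciferase read-out after 24 h compound exposure at 1 nM to 30 μM, with TCF-driven transcription switched on by estrogen addition. IC50 values come from curve fits of data normalized against the vehicle-only control.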

SMILES: CC(=O)N(C)CCNc1cncc(Oc2ccc(-c3ccc(C)cn3)cc2)n1 [Compound 19, N-Methyl-N-(2-{6-[4-(5-methyl-pyridin-2-yl)-phenoxy]-pyrazin-2-ylamino}-ethyl)-acetamide]
- IC50: < 200 nM

SMILES: COc1cc(C(C)=O)ccc1Oc1cncc(N(C)CCN(C)C(C)=O)n1 [Compound 243, N-(2-{[6-(4-Acetyl-2-methoxy-phenoxy)-pyrazin-2-yl]-methyl-amino}-ethyl)-N-methyl-acetamide]
- IC50: 1000 to 10000 nM

SMILES: CC(=O)Nc1ccc(-c2ccc(Oc3cncc(N(C)CCN(C)C(C)=O)n3)c(F)c2)cn1 [Compound 225, N-[2-({6-[4-(6-Acetylamino-pyridin-3-yl)-2-fluoro-phenoxy]-pyrazin-2-yl}-methyl-amino)-ethyl]-N-methyl-acetamide]
- IC50: < 200 nM

SMILES: CC(=O)N(C)CCCc1cnc(N)c(Oc2ccc(F)cc2)c1 [Compound 306, N-{3-[6-Amino-5-(4-fluoro-phenoxy)-pyridin-3-yl]-propyl}-N-methyl-acetamide]
- IC50: 1000 to 10000 nM

SMILES: CCOC(=O)c1ccc(Oc2cncc(N(C)CCN(C)C(C)=O)n2)cc1 [Compound 115, 4-(6-{[2-(Acetyl-methyl-amino)-ethyl]-methyl-amino}-pyrazin-2-yloxy)-benzoic acid ethyl ester]
- IC50: 200 to 1000 nM

SMILES: CNC(=O)CCN(C)c1cncc(Oc2ccc(-c3ccc(C)cn3)cc2)n1 [Compound 247, N-Methyl-3-(methyl-{6-[4-(5-methyl-pyridin-2-yl)-phenoxy]-pyrazin-2-yl}-amino)-propionamide]
- IC50: < 200 nM

SMILES: CC(=O)N(C)CCN(C)c1cncc(Oc2ccc(-c3ccc(C)cn3)cc2)n1 [Compound 93, N-Methyl-N-[2-(methyl-{6-[4-(5-methyl-pyridin-2-yl)-phenoxy]-pyrazin-2-yl}-amino)-ethyl]-acetamide]
- IC50: < 200 nM

SMILES: CC(=O)N(C)CCN(C)c1cncc(Oc2noc3ccccc23)n1 [Compound 224, N-(2-{[6-(Benzo[d]isoxazol-3-yloxy)-pyrazin-2-yl]-methyl-amino}-ethyl)-N-methyl-acetamide]
- IC50: < 200 nM

SMILES: CNCCN(C)c1cncc(Oc2ccc(-c3cccc(N4CCN(C)CC4)n3)cc2)n1 [Compound 134, N,N′-Dimethyl-N-(6-{4-[6-(4-methyl-piperazin-1-yl)-pyridin-2-yl]-phenoxy}-pyrazin-2-yl)-ethane-1,2-diamine]
- IC50: 1000 to 10000 nM

SMILES: CC(=O)N(C)CCN(C)c1cncc(Sc2ccc(F)cc2)n1 [Compound 129, N-(2-{[6-(4-Fluoro-phenyl-sulfanyl)-pyrazin-2-yl]-methyl-amino}-ethyl)-N-methyl-acetamide]
- IC50: 200 to 1000 nM

SMILES: COc1ccc(Oc2cncc(N(C)CCN(C)C(=O)Cc3cccs3)n2)cc1 [Compound 33, N-(2-{[6-(4-Methoxy-phenoxy)-pyrazin-2-yl]-methyl-amino}-ethyl)-N-methyl-2-thiophen-2-yl-acetamide]
- IC50: 1000 to 10000 nM

SMILES: CC(=O)N(C)CCN(C)c1cncc(Oc2ccc(-c3cnn(C)c3)cc2)n1 [Compound 313, N-Methyl-N-[2-(methyl-{6-[4-(1-methyl-1H-pyrazol-4-yl)-phenoxy]-pyrazin-2-yl}-amino)-ethyl]-acetamide]
- IC50: < 200 nM

SMILES: COc1ccc(-c2ccc(Oc3cncc(NCCN(C)C(C)=O)n3)cc2)nc1 [Compound 240, N-(2-{6-[4-(5-Methoxy-pyridin-2-yl)-phenoxy]-pyrazin-2-ylamino}-ethyl)-N-methyl-acetamide]
- IC50: 200 to 1000 nM

SMILES: CC(=O)N(C)CCN(C)c1cncc(Oc2ccc(-c3nc4cc(C#N)ccc4[nH]3)cc2)n1 [Compound 124, N-[2-({6-[4-(5-Cyano-1H-benzo-imidazo-2-yl)-phenoxy]-pyrazin-2-yl}-methyl-amino)-ethyl]-N-methyl-acetamide]
- IC50: 200 to 1000 nM

SMILES: CC(=O)N(C)CCCc1cncc(Oc2ccc(-c3ccc(N4CCOCC4)nc3)cc2F)n1 [Compound 267, N-(3-{6-[2-Fluoro-4-(6-morpholin-4-yl-pyridin-3-yl)-phenoxy]-pyrazin-2-yl}-propyl)-N-methyl-acetamide]
- IC50: 200 to 1000 nM

SMILES: CC(=O)N(C)CCN(C)c1cncc(Oc2ccc(-c3ccc(N)nc3)c(F)c2F)n1 [Compound 280, N-[2-({6-[4-(6-Amino-pyridin-3-yl)-2,3-difluoro-phenoxy]-pyrazin-2-yl}-methyl-amino)-ethyl]-N-methyl-acetamide]
- IC50: < 200 nM

SMILES: CCN(CCNc1cncc(Oc2ccc(OC)cc2)n1)C(C)=O [Compound 71, N-Ethyl-N-{2-[6-(4-methoxy-phenoxy)-pyrazin-2-ylamino]-ethyl}-acetamide]
- IC50: 200 to 1000 nM

SMILES: CC(=O)N(C)CCCc1cncc(Oc2ccc(-c3cccc(N4CCN(C)CC4)n3)cc2)n1 [Compound 217, N-Methyl-N-[3-(6-{4-[6-(4-methyl-piperazin-1-yl)-pyridin-2-yl]-phenoxy}-pyrazin-2-yl)-propyl]-acetamide]
- IC50: 200 to 1000 nM

SMILES: CC(=O)N(C)CCN(C)c1cncc(Oc2ccc(-c3cc(C#N)ccn3)cc2)n1 [Compound 199, N-[2-({6-[4-(4-Cyano-pyridin-2-yl)-phenoxy]-pyrazin-2-yl}-methyl-amino)-ethyl]-N-methyl-acetamide]
- IC50: < 200 nM

SMILES: CCC1Sc2ccccc2NC1c1ccc(Oc2cncc(N(C)CCN(C)C(C)=O)n2)cc1 (centres unmarked) [Compound 135, N-[2-({6-[4-(2-Ethyl-3,4-dihydro-2H-benzo[1,4]thiazin-3-yl)-phenoxy]-pyrazin-2-yl}-methyl-amino)-ethyl]-N-methyl-acetamide]
- IC50: 1000 to 10000 nM

SMILES: CC(=O)Nc1ccc(Oc2cncc(N(C)CCN(C)C(C)=O)n2)cc1 [Compound 94, N-(2-{[6-(4-Acetylamino-phenoxy)-pyrazin-2-yl]-methyl-amino}-ethyl)-N-methyl-acetamide]
- IC50: 200 to 1000 nM

SMILES: CC(=O)N(C)CCNc1cncc(Oc2ccc(-c3ccc(S(N)(=O)=O)cn3)cc2)n1 [Compound 294, N-Methyl-N-(2-{6-[4-(5-sulfamoyl-pyridin-2-yl)-phenoxy]-pyrazin-2-ylamino}-ethyl)-acetamide]
- IC50: 1000 to 10000 nM

SMILES: CC(=O)N(C)CCN(C)c1cncc(Oc2ccc(-c3cnc(N)cn3)cc2F)n1 [Compound 238, N-[2-({6-[4-(5-Amino-pyrazin-2-yl)-2-fluoro-phenoxy]-pyrazin-2-yl}-methyl-amino)-ethyl]-N-methyl-acetamide]
- IC50: < 200 nM

SMILES: CC(=O)N(C)CCN(C)c1cncc(Oc2ccc(C(=O)c3ccco3)cc2)n1 [Compound 157, N-[2-({6-[4-(Furan-2-carbonyl)-phenoxy]-pyrazin-2-yl}-methyl-amino)-ethyl]-N-methyl-acetamide]
- IC50: < 200 nM

SMILES: CC(=O)N(C)CCN(C)c1cncc(Oc2cccc(N(C)C)c2)n1 [Compound 114, N-(2-{[6-(3-Dimethyl-amino-phenoxy)-pyrazin-2-yl]-methyl-amino}-ethyl)-N-methyl-acetamide]
- IC50: 1000 to 10000 nM

SMILES: CC(=O)N(C)CCN(C)c1cncc(Oc2cnc3[nH]ccc3c2)n1 [Compound 250, N-Methyl-N-(2-{methyl-[6-(1H-pyrrolo[2,3-b]pyridin-5-yloxy)-pyrazin-2-yl]-amino}-ethyl)-acetamide]
- IC50: 1000 to 10000 nM

SMILES: CC(=O)NCC(C)Nc1cncc(Oc2ccc(F)cc2)n1 (centres unmarked) [Compound 289, N-{2-[6-(4-Fluoro-phenoxy)-pyrazin-2-ylamino]-propyl}-acetamide]
- IC50: 1000 to 10000 nM

SMILES: CCC(=O)N(C)CCN(C)c1cncc(Oc2ccc(OC)cc2)n1 [Compound 35, N-(2-{[6-(4-Methoxy-phenoxy)-pyrazin-2-yl]-methyl-amino}-ethyl)-N-methyl-propionamide]
- IC50: 1000 to 10000 nM

SMILES: O=C1[C@@H]2CC[C@@H](C2)N1CCCc1cncc(Oc2ccc(F)cc2)n1 [Compound 303, (1S,4R)-2-{3-[6-(4-Fluoro-phenoxy)-pyrazin-2-yl]-propyl}-2-aza-bicyclo[2.2.1]heptan-3-one]
- IC50: 200 to 1000 nM

SMILES: CC(=O)N(C)CCN(C)c1cncc(Oc2ccc(-c3ccc(=O)[nH]n3)cc2)n1 [Compound 151, N-Methyl-N-[2-(methyl-{6-[4-(6-oxo-1,6-dihydro-pyridazin-3-yl)-phenoxy]-pyrazin-2-yl}-amino)-ethyl]-acetamide]
- IC50: 200 to 1000 nM

SMILES: CC(=O)N(C)CCN(C)c1cncc(Oc2ccc(-c3ccnc4ccccc34)cc2)n1 [Compound 195, N-Methyl-N-(2-{methyl-[6-(4-quinolin-4-yl-phenoxy)-pyrazin-2-yl]-amino}-ethyl)-acetamide]
- IC50: < 200 nM

SMILES: CSc1cccc(Oc2cncc(N(C)CCN(C)C(=O)C(F)F)n2)c1 [Compound 75, 2,2-Difluoro-N-methyl-N-(2-{methyl-[6-(3-methyl-sulfanyl-phenoxy)-pyrazin-2-yl]-amino}-ethyl)-acetamide]
- IC50: 1000 to 10000 nM

SMILES: CC(=O)NCCSc1cncc(Oc2ccc(F)cc2)n1 [Compound 119, N-{2-[6-(4-Fluoro-phenoxy)-pyrazin-2-ylsulfanyl]-ethyl}-acetamide]
- IC50: 1000 to 10000 nM

SMILES: CC(=O)N(C)CCN(C)c1cncc(Oc2ccc(-c3cnc(N)cn3)cc2)n1 [Compound 185, N-[2-({6-[4-(5-Amino-pyrazin-2-yl)-phenoxy]-pyrazin-2-yl}-methyl-amino)-ethyl]-N-methyl-acetamide]
- IC50: < 200 nM

SMILES: CC(=O)Nc1ccc(-c2ccc(Oc3cncc(CCCN(C)C(C)=O)n3)cc2)cn1 [Compound 219, N-(3-{6-[4-(6-Acetylamino-pyridin-3-yl)-phenoxy]-pyrazin-2-yl}-propyl)-N-methyl-acetamide]
- IC50: 200 to 1000 nM

SMILES: CC(=O)N(C)CCN(C)c1cncc(Oc2ccc(Cl)cc2Cl)n1 [Compound 96, N-(2-{[6-(2,4-Dichloro-phenoxy)-pyrazin-2-yl]-methyl-amino}-ethyl)-N-methyl-acetamide]
- IC50: 200 to 1000 nM

SMILES: O=C1CCCCN1CCNc1cncc(Oc2ccc(-c3ccc(CO)nc3)cc2)n1 [Compound 292, 1-(2-{6-[4-(6-Hydroxy-methyl-pyridin-3-yl)-phenoxy]-pyrazin-2-ylamino}-ethyl)-piperidin-2-one]
- IC50: < 200 nM

SMILES: CC(=O)N(C)CCN(C)c1cncc(Oc2ccc(-c3ccccn3)cc2)n1 [Compound 133, N-Methyl-N-(2-{methyl-[6-(4-pyridin-2-yl-phenoxy)-pyrazin-2-yl]-amino}-ethyl)-acetamide]
- IC50: < 200 nM

— patent US9493444B2 (Merck Patent GmbH, priority 2012, dated 2016)
